Test results: ChEMBL document CHEMBL4706552, “Discovery of 4-methyl-N-(4-((4-methylpiperazin- 1-yl)methyl)-3-(trifluoromethyl)phenyl)-3-((6-(pyridin-3-yl)-1H-pyrazolo[3,4-d]pyrimidin-4-yl)-oxy)benzamide as a potent inhibitor of RET and its gatekeeper mutant” (Eur J Med Chem, 2020)
The source made the active and inactive calls. The calls are words filed in the database; no cut-off is given here.

Tests used:
[1] = target: T1, Proto-oncogene tyrosine-protein kinase receptor Ret (Homo sapiens, UniProt P07949); assay: Binding affinity to wild-type human partial length RET (E713 to D1014 residues) expressed in bacterial expression system assessed as residual binding level at 1 uM by kinomescan method relative to control
[2] = target: T2, Kinesin-1 heavy chain/ Tyrosine-protein kinase receptor RET (Homo sapiens) (UniProt P07949+P33176); assay: Inhibition of KIF5B-RET fusion protein (unknown origin) expressed in mouse BaF3 cells assessed as reduction in cell proliferation measured after 48 hrs by MTS assay; assay type: cell-based
BaF3 [3] = assay: Inhibition of CCDC6-RET V804M mutant fusion protein (unknown origin) expressed in mouse BaF3 cells assessed as reduction in cell proliferation measured after 48 hrs by MTS assay; assay type: cell-based; conditions: Homo sapiens
[4] = system: Kinesin-1 heavy chain/ Tyrosine-protein kinase receptor RET (Homo sapiens), P07949+P33176 [V804M]; assay: Inhibition of KIF5B-RET V804M mutant fusion protein (unknown origin) expressed in mouse BaF3 cells assessed as reduction in cell proliferation measured after 48 hrs by MTS assay; assay type: cell-based
[5] = target: T1, Proto-oncogene tyrosine-protein kinase receptor Ret; assay: Inhibition of recombinant wild-type human N-terminal GST-HIS6 fused RET C-terminal domain (H658 to S1114 residues) expressed in Sf9 insect cells using TRK-C-derived peptide as substrate in presence of [33P]-ATP by filter binding assay
[6] = target: Proto-oncogene tyrosine-protein kinase receptor Ret (Homo sapiens, UniProt P07949, V804M); assay: Inhibition of recombinant human N-terminal GST-HIS6 fused RET V804M mutant C-terminal domain (H658 to S1114 residues) expressed in Sf9 insect cells using TRK-C-derived peptide as substrate in presence of [33P]-ATP by filter binding assay
[7] = target: Kinesin-1 heavy chain/ Tyrosine-protein kinase receptor RET (Homo sapiens, UniProt P07949); assay: Inhibition of KIF5B-RET fusion protein (unknown origin) by radiometric assay
MDA-MB-231 = assay: Antiproliferative activity against human MDA-MB-231 cells measured after 48 hrs by MTS assay; assay type: functional
A-375 = assay: Antiproliferative activity against human A-375 cells measured after 48 hrs by MTS assay; assay type: functional
HepG2 = assay: Antiproliferative activity against human HepG2 cells at 3.3 uM measured after 48 hrs by MTS assay; assay type: functional; conditions: read-out: GI
BGC-823 = assay: Antiproliferative activity against human BGC-823 cells at 3.3 uM measured after 48 hrs by MTS assay; assay type: functional; conditions: read-out: GI
[8] = target: T1, Proto-oncogene tyrosine-protein kinase receptor Ret; assay: Inhibition of RET phosphorylation in human LC-2-ad cells; assay type: cell-based
[9] = target: T1, Proto-oncogene tyrosine-protein kinase receptor Ret; assay: Inhibition of RET in human LC-2-ad cells assessed as reduction in SHC phosphorylation; assay type: cell-based
[10] = target: T2, Kinesin-1 heavy chain/ Tyrosine-protein kinase receptor RET (Homo sapiens); assay: Inhibition of KIF5B-RET fusion protein (unknown origin) expressed in mouse BaF3 cells assessed as reduction in RET autophosphorylation at 50 nM measured after 4 hrs by Western blot analysis; assay type: cell-based
[11] = target: T2, Kinesin-1 heavy chain/ Tyrosine-protein kinase receptor RET (Homo sapiens); assay: Inhibition of KIF5B-RET fusion protein (unknown origin) expressed in mouse BaF3 cells assessed as reduction in […] measured after 4 hrs by Western blot analysis; assay type: cell-based
[12] = system: Kinesin-1 heavy chain/ Tyrosine-protein kinase receptor RET (Homo sapiens), P07949+P33176 [V804M]; assay: Inhibition of KIF5B-RET V804M mutant fusion protein (unknown origin) expressed in mouse BaF3 cells assessed as reduction in ERK phosphorylation at 500 nM measured after 4 hrs by Western blot analysis; assay type: cell-based
[13] = target: Coiled-coil domain-containing protein 6/Tyrosine-protein kinase receptor RET (Homo sapiens) (UniProt P07949+Q16204); assay: Inhibition of CCDC6-RET fusion protein (unknown origin) expressed in mouse BaF3 cells assessed as reduction in RET phosphorylation at 10 to 500 nM measured after 4 hrs by Western blot analysis; assay type: cell-based; conditions: dose 10-500 nM
BaF3 [14] = assay: Inhibition of CCDC6-RET V804M mutant fusion protein (unknown origin) expressed in mouse BaF3 cells assessed as reduction in SHC phosphorylation at 10 to 500 nM measured after 4 hrs by Western blot analysis; assay type: cell-based; conditions: Homo sapiens, dose 10-500 nM
BaF3 [15] = assay: Inhibition of CCDC6-RET V804M mutant fusion protein (unknown origin) expressed in mouse BaF3 cells assessed as reduction in AKT phosphorylation at 10 to 500 nM measured after 4 hrs by Western blot analysis; assay type: cell-based; conditions: Homo sapiens, dose 10-500 nM
[16] = AUC (0 to t) in Sprague-Dawley rat at 1 mg/kg, iv; assay type: ADME, organism-based; set-up: dose 1 mg/kg; conditions: in vivo
[17] = AUC (0 to infinity) in Sprague-Dawley rat at 1 mg/kg, iv; assay type: ADME, organism-based; set-up: route intravenous, time infinity, dose 1 mg/kg; conditions: in vivo
[18] = Cmax in Sprague-Dawley rat at 10 mg/kg, po; assay type: ADME, organism-based; set-up: route oral, dose 10 mg/kg; conditions: in vivo
[19] = Oral bioavailability in Sprague-Dawley rat at 10 mg/kg; assay type: ADME, organism-based; conditions: in vivo
BaF3 [20] = assay: Antitumor activity against KIF5B-RET fusion protein expressing mouse BaF3 cells implanted in iv dosed BALB/c mouse assessed as tumor growth inhibition administered once daily for 7 days; assay type: functional, organism-based; conditions: dose 30-50 mg/kg, time 7.0 day
Mus musculus [21] = assay: (§1) In vivo inhibition of KIF5B-RET fusion protein in BALB/c mouse implanted with KIF5B-RET fusion protein expressing mouse BaF3 cells assessed as reduction in RET phosphorylation at 30 to 50 mg/kg, iv administered daily for 7 days and measured 4 hrs post last dose by Western blot analysis; assay type: functional, organism-based; conditions: dose 30-50 mg/kg, time 7.0 day
Mus musculus [22] = assay: as §1, with “KIF5B-RET V804M mutant” for “KIF5B-RET”; assay type: functional, organism-based; conditions: dose 30-50 mg/kg, time 7.0 day
BaF3 [23] = assay: (§2) Induction of apoptosis in KIF5B-RET V804M mutant fusion protein expressing mouse BaF3 cells implanted in BALB/c mouse assessed as increase in cleaved PARP level at 30 to 50 mg/kg, iv administered once daily for 7 days measured 4 hrs post last dose by Western blot analysis; assay type: functional, organism-based; conditions: dose 30-50 mg/kg, time 7.0 day
BaF3 [24] = assay: Induction of apoptosis in KIF5B-RET fusion protein expressing mouse BaF3 cells implanted in BALB/c mouse assessed as increase in cleaved PARP level at 30 to 50 mg/kg, iv administered once daily for 7 days measured 4 hrs post last dose by Western blot analysis; assay type: functional, organism-based; conditions: dose 30-50 mg/kg, time 7.0 day
BaF3 [25] = assay: as §2, with “caspase-3” for “PARP”, “H and E staining based immunohistochemical” for “Western blot”; assay type: functional, organism-based; conditions: dose 30-50 mg/kg, time 7.0 day
[26] = Toxicity in BALB/c mouse implanted with KIF5B-RET V804M mutant fusion protein expressing mouse BaF3 cells assessed as body weight loss at 30 to 50 mg/kg, iv administered daily for 7 days measured daily during compound dosing; assay type: organism-based; conditions: in vivo, 168 h, dose 30-50 mg/kg, time 7 day
BaF3 [27] = assay: Antitumor activity against KIF5B-RET fusion protein expressing mouse BaF3 cells implanted in BALB/c mouse assessed as tumor growth inhibition at 30 to 50 mg/kg, iv administered once daily for 7 days relative to control; assay type: functional; conditions: dose 30-50 mg/kg, time 7 day
BaF3 [28] = assay: Antitumor activity against KIF5B-RET V804M mutant fusion protein expressing mouse BaF3 cells implanted in BALB/c mouse assessed as tumor growth inhibition at 30 to 50 mg/kg, iv administered once daily for 7 days relative to control; assay type: functional; conditions: dose 30-50 mg/kg, time 7 day

T2 sequence (P07949 29-1114 limits assumed): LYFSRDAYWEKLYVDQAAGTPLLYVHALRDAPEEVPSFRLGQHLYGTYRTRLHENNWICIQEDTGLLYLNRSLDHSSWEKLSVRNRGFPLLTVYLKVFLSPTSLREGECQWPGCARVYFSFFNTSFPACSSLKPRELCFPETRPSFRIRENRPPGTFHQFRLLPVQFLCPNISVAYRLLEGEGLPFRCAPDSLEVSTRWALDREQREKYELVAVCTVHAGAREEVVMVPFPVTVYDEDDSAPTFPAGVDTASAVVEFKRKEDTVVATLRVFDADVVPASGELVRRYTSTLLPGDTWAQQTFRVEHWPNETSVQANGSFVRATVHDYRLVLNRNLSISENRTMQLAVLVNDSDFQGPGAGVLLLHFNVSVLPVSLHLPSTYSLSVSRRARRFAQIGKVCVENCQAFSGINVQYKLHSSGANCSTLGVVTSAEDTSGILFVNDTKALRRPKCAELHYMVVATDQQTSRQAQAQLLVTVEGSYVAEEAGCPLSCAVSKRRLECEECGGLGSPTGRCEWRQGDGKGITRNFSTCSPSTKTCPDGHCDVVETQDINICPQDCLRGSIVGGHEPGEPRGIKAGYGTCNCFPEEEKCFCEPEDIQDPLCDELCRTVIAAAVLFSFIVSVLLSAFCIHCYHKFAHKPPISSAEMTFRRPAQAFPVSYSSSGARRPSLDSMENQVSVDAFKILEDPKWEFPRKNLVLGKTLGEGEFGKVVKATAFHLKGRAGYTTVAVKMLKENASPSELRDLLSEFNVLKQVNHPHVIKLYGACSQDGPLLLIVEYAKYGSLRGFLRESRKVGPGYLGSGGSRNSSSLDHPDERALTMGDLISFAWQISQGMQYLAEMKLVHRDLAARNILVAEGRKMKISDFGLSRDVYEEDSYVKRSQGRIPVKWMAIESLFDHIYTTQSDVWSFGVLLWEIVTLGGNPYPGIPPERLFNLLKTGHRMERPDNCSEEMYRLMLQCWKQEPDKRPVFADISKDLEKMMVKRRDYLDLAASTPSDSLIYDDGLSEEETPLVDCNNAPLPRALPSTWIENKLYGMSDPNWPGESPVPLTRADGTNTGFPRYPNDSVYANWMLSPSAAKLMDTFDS
T2 sequence (P33176 2-963 partner limits assumed): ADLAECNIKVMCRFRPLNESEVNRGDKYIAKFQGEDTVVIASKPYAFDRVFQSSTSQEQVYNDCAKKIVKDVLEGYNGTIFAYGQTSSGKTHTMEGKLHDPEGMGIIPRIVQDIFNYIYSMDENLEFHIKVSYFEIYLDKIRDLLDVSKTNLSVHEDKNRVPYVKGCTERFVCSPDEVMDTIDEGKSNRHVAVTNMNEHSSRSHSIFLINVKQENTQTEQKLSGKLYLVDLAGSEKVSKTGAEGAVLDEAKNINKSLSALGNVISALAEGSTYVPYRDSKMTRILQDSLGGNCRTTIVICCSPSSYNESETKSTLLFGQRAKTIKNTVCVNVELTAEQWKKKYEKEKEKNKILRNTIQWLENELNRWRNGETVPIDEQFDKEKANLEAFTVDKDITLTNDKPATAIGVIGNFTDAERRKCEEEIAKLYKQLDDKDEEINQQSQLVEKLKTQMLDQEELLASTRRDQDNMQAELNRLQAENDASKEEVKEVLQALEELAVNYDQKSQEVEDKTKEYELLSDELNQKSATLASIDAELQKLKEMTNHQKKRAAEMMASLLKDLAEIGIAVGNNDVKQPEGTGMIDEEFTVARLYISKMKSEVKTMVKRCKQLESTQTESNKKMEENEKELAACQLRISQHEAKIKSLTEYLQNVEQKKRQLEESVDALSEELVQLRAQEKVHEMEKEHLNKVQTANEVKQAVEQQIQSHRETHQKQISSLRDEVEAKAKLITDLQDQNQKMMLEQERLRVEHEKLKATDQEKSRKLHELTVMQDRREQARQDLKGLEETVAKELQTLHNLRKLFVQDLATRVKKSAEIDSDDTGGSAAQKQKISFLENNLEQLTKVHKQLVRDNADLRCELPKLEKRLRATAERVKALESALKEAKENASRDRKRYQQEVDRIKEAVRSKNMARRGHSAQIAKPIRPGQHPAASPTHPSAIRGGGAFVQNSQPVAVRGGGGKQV
T1 sequence (P07949 whole entry, the tested form may be a part): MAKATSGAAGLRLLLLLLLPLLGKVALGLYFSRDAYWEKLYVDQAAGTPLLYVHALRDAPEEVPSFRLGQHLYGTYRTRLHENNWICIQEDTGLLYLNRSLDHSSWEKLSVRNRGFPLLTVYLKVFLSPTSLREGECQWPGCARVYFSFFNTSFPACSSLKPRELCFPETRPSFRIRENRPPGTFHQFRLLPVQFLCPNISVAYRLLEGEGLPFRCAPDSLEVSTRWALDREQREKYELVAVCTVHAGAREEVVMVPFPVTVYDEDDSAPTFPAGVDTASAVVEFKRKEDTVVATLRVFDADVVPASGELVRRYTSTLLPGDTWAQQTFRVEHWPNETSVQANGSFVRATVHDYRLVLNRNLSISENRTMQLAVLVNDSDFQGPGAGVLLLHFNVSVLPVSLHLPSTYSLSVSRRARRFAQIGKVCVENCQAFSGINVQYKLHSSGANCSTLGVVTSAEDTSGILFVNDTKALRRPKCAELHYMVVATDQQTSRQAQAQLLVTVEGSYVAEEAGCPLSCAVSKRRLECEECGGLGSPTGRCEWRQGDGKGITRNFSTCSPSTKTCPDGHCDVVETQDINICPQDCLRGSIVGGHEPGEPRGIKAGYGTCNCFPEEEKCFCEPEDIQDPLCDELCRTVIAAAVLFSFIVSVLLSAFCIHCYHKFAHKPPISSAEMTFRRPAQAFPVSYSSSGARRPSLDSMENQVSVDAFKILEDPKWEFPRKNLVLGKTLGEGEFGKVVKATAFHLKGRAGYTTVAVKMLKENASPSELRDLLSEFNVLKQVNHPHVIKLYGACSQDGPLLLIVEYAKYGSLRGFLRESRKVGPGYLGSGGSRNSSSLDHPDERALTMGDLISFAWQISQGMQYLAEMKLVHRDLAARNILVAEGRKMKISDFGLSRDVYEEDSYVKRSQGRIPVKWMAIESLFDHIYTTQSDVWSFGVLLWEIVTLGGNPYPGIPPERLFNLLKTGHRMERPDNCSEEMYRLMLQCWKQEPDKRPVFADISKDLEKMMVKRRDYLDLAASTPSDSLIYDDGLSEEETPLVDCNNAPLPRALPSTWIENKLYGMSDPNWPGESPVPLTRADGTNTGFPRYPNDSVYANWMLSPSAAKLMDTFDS
Sequence of Coiled-coil domain-containing protein 6/Tyrosine-protein kinase receptor RET (Homo sapiens) (P07949 29-1114 limits assumed): as the sequence (P07949 29-1114 limits assumed) above
Sequence of Coiled-coil domain-containing protein 6/Tyrosine-protein kinase receptor RET (Homo sapiens) (Q16204 2-474 partner limits assumed): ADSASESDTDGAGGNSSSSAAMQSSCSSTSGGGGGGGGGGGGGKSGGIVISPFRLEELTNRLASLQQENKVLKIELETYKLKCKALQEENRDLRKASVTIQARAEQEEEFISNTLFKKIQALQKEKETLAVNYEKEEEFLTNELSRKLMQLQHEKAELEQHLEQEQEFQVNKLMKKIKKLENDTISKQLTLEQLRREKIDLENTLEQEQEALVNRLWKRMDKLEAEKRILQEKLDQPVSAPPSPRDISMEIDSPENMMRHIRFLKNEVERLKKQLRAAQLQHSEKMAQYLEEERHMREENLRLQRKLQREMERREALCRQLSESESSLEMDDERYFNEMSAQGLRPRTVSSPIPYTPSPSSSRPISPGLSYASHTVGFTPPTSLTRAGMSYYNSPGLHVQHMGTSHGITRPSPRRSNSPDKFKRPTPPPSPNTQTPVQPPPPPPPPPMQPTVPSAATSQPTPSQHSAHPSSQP
Sequence of Proto-oncogene tyrosine-protein kinase receptor Ret (Homo sapiens, UniProt P07949, V804M) (P07949 29-1114 V804M limits assumed): as the sequence (P07949 29-1114 limits assumed) above, with V776M counted along it
Sequence of Kinesin-1 heavy chain/ Tyrosine-protein kinase receptor RET (P07949 whole entry, the tested form may be a part): as the sequence (P07949 whole entry, the tested form may be a part) above
Sequence of Kinesin-1 heavy chain/ Tyrosine-protein kinase receptor RET (P33176 whole entry, further chain, the tested form may be a part): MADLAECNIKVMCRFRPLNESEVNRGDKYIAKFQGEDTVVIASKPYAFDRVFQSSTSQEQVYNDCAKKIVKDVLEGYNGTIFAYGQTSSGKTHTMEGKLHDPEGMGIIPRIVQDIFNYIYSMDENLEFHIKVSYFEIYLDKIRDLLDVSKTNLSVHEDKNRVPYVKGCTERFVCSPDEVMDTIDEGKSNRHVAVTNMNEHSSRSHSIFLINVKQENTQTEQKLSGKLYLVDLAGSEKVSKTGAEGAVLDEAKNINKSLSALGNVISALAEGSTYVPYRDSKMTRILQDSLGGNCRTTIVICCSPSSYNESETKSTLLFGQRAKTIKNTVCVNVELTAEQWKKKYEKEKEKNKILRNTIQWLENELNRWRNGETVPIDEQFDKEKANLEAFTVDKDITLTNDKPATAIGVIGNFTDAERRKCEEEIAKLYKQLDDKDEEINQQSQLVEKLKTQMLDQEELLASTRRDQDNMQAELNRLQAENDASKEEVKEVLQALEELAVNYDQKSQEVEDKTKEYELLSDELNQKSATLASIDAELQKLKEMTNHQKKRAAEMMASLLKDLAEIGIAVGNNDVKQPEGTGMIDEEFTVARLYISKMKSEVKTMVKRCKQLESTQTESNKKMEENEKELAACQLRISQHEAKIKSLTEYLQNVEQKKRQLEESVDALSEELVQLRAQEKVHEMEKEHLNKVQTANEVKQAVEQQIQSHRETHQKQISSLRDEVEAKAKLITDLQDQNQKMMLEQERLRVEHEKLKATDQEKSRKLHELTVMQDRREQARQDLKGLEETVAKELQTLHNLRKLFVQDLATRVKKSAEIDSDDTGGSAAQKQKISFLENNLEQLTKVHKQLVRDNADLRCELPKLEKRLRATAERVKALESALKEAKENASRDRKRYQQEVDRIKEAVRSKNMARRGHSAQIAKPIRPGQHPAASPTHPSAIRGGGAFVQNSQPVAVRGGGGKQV

SMILES: Cc1ccc(C(=O)Nc2ccc(CN3CCN(C)CC3)c(C(F)(F)F)c2)cc1Oc1nc(-c2cccnc2)nc2[nH]ncc12
- Activity [1]: 0.05%
- GI50 [2]: 17 nM
- GI50 (BaF3 [3]): 45 nM
- GI50 [4]: 21 nM
- IC50 [5]: 3.98 nM
- IC50 [6]: 7.86 nM
- IC50 [7]: 8.86 nM
- GI50 (MDA-MB-231): 2430 nM
- GI50 (A-375): 2950 nM
- inhibition of growth at 3.3 µM (HepG2): 33%
- inhibition of growth at 3.3 µM (BGC-823): 39%
- inhibition [8]: Active
- inhibition [9]: Active
- inhibition [10]: Dose-dependent effect
- inhibition [11]: Dose-dependent effect
- inhibition [12]: Active
- inhibition [13]: Active
- inhibition (BaF3 [14]): Active
- inhibition (BaF3 [15]): Active
- AUC(0-t) [16]: 6960 ng·h/mL
- AUC(0-inf) [17]: 7010 ng·h/mL
- Cmax [18]: 194 ng/mL
- bioavailability [19]: 3%
- Activity (BaF3 [20]): Dose-dependent effect
- inhibition (Mus musculus [21]): Dose-dependent effect
- inhibition (Mus musculus [22]): Dose-dependent effect
- Activity (BaF3 [23]): Active
- Activity (BaF3 [24]): Active
- Activity (BaF3 [25]): Active
- Activity [26]: Non-Toxic
- TGI (BaF3 [27]): >60%
- TGI (BaF3 [28]): >60%
